The results in this text go back to US8722674B2, “1,3,5-triazine-2,4,6-triamine compound or pharmaceutical acceptable salt thereof, and pharmaceutical composition comprising the same” (Hanall Biopharma Co., Ltd., priority 2007, dated 2014).

SMILES strings stand for the structures.

In data set [1] the test system is HepG2 cells. The data set is described as follows: Measurement of gluconeogenesis (14C-lactate). As to conditions: Homo sapiens, 24 h treatment, lower is better, read-out: gluconeogenesis (glucose synthesis ability), % control. Format: cell-based. On the procedure: (§1) Metformin that is widely used in type 2 diabetic patients inhibits the formation of glucose, the synthesis of cholesterol and triglyceride in liver cells and promote the absorption of glucose from blood vessels in the muscle cells. […] In the case of the ability to form cholesterol, triglyceride and glucose, the lower the numerical value, the better the effect. Numerical values for a control group become reference values.
As a hepatic cell model, HepG2 cells were cultured in 10% serum-containing high glucose media, and then treated with each of the compounds for 24 hours. Then, the cells were treated with 0.5 uCi 14C-lactate and 10 mM L-lactate, and cultured for 4 hours. After cultivation, the media of the cells were removed, and the cells were washed with PBS, treated with 0.1N NaOH and left to stand at room temperature for 1 hour. Then, the cells were neutralized with 1N HCl, and the amount of glucose formed in the cells was measured with a liquid scintillation counter. […] A lower measurement value means a stronger blood glucose lowering activity.

The test system of data set [2] is HepG2 cells. Nature of the data set: Measurement of cholesterol synthesis ability (Amplex red fluorescence). Format: cell-based. The settings on record: Homo sapiens, HepG2 cells, 24 h treatment, lower is better, read-out: cholesterol synthesis ability, % control.
Excerpt: as §1
(§2) As a hepatic cell model, HepG2 cells were used to measure cholesterol synthesis inhibitory ability, which is the important function of AMPK. The hepatic cell model HepG2 cells were cultured in 1% serum-containing media for 24 hours, and then treated with each of the compounds for 24 hours. Then, the cells were disrupted with lysis buffer (0.1 M potassium phosphate, pH 7.4, 0.05 M NaCl, 5 mM cholic acid, 0.1% Triton X-100). To the disrupted cells, the same volume of a reaction solution (2 U/ml cholesterol oxidizing agent, 2 U/ml peroxidase, 0.2 U/ml cholesterol esterase, and 300 μM Amplex red as a fluorescent factor) was added and allowed to react at 37° C. for 30 minutes. After completion of the reaction, the cells were measured with a fluorometer at a wavelength of 560/590 nm (ex/em), thus quantifying the amount of […] formed in the cells. A lower measurement value means an increased lipid production inhibitory ability.

In data set [3] the test system is HepG2 cells. The data set is described as follows: Measurement of triglyceride (Amplex red fluorescence). The settings on record: Homo sapiens, 24 h treatment, lower is better, read-out: triglyceride synthesis ability, % control. Format: cell-based. On the procedure: as §1
as §2, with “model,” for “model, HepG2 cells were used to measure cholesterol synthesis inhibitory ability, which is the important function of AMPK. The hepatic cell model”, “(0.1M” for “(0.1 M”, “(0.76” for “(2”, “glycerol kinase, […] peroxidase, 22.2 U/ml glycerol” for “cholesterol”, “agent,” for “agent, 2 U/ml peroxidase, 0.2 U/ml cholesterol esterase,”

Data set [4] relates to C2C12 cells. Nature of the data set: Measurement of glucose absorption (3H-deoxy-glucose). As to conditions: for effect of reducing insulin resistance, times better than the control group: absorption effect divided by average percent of control group (metformin 2 mM), multiplied by 20. Format: cell-based.
Excerpt: as §1
As a muscle cell model, C2C12 cells were induced to differentiate into muscle cells in 2% bovine fetal serum for 6 days. The C2C12 cells which differentiated into muscle cells were treated with each of the compounds in serum-free low glucose media, and then cultured with 1 μM of insulin for 24 hours. After cultivation, the cells were treated with 1 μCi 3H-deoxy-glucose and 10 μM deoxy-glucose at 37° C. for 15 minutes. After treatment, the media were removed, and the cells were washed twice with PBS. The washed cells were treated with 0.1 N NaOH and neutralized with 1N HCl. The amount of glucose absorbed into the cells was measured with a liquid scintillation counter. The effect of the compounds was determined by selecting a compound showing an absorption effect of at least 200%, dividing the absorption effect by the average percent of the control group, and then multiplying the divided value by […]. A higher measurement value means a stronger ability to reduce insulin resistance.

The mark [5] stands for this setting: Mus musculus, differentiated C2C12 muscle cells, with 1 μM insulin 24 h, higher is better, read-out: glucose absorption, % control.

Broadly, the melting point is the temperature of the solid-liquid transition. With `CN(C)c1nc(N)nc(Nc2ccccc2-c2ccccc2)n1` [Example 38, N2-(biphenyl-2-yl)-N4,N4-dimethyl-1,3,5-triazine-2,4,6-triamine], the melting point fell in the range of 196 to 216 °C. Moreover, the activity at 100 µM in data set [1] stood at 13.8%. In addition, the activity at 100 µM in data set [2] amounted to 55.1%. Besides, the activity at 100 µM in data set [3] was 63.3%. Moreover, the activity at 100 µM in data set [4] (setting [5]) amounted to 92.1%.

For the compound `CCCc1ccccc1Nc1nc(N)nc(N(C)C)n1` [Example 26, N2,N2-dimethyl-N4-(2-propylphenyl)-1,3,5-triazine-2,4,6-triamine], the melting point is 130 to 145 °C. The activity at 100 µM in data set [1] came to 24.7%. In addition, the activity at 100 µM in data set [2] is 62.9%. For the same compound, in data set [3], the activity at 100 µM came out at 38.6%. The activity at 100 µM in data set [4] (setting [5]) amounted to 170%.

Take `CN(C)c1nc(N)nc(NC2CCCCC2)n1` [Example 41, N2-cyclohexyl-N4,N4-dimethyl-1,3,5-triazine-2,4,6-triamine]: the melting point was in the range of 119 to 120 °C. Also, in data set [1], the activity at 100 µM was 90.6%. Besides, the activity at 100 µM in data set [2] came out at 70.8%. Besides, the activity at 100 µM in data set [3] came to 90.9%. In addition, the activity at 100 µM in data set [4] (setting [5]) amounted to 263%. Further, the “effect of reducing insulin resistance, times better than the control group” value in data set [4] is listed as “about 16 times”.

`CN(C)c1nc(N)nc(NCCCN2CCCC2=O)n1` [Example 9, 1-(3-(4-amino-6-(dimethylamino)-1,3,5-triazin-2-ylamino)propyl)pyrrolidin-2-one]: the melting point was 176.5 to 177 °C. The activity at 200 µM in data set [1] is 110%. Also, the activity at 100 µM in data set [2] came to 93.5%. Moreover, the activity at 100 µM in data set [3] amounted to 95.2%. Besides, the activity at 200 µM in data set [4] (setting [5]) turned out to be 120%.

In the case of `Nc1nc(N)nc(NCCc2ccccc2)n1` [Example 13, N2-phenethyl-1,3,5-triazine-2,4,6-triamine], the melting point fell in the range of 169.9 to 171.8 °C. In addition, in data set [1], the activity at 200 µM was 99.6%. Also, the activity at 100 µM in data set [2] came to 92.3%. For the same compound, the activity at 100 µM in data set [3] amounted to 103%. In data set [4] (setting [5]), the activity at 200 µM was determined as 115%.

`CCCc1ccc(Nc2nc(N)nc(N(C)C)n2)cc1` [Example 27, N2,N2-dimethyl-N4-(4-propylphenyl)-1,3,5-triazine-2,4,6-triamine] returned a melting point of 155 to 165 °C. In data set [1], the activity at 100 µM was determined as 30.9%. Moreover, the activity at 100 µM in data set [2] turned out to be 63.5%. Besides, the activity at 100 µM in data set [3] was determined as 67.4%. The activity at 100 µM in data set [4] (setting [5]) worked out at 4.05%.

`CN(C)c1nc(N)nc(N2CCCCCC2)n1` [Example 34, 6-(azepan-1-yl)-N2,N2-dimethyl-1,3,5-triazine-2,4-diamine] came in with a melting point of 240 to 249 °C. Besides, the activity at 100 µM in data set [1] was found to be 39.4%. In data set [2], the activity at 100 µM came out at 52.6%. The activity at 100 µM in data set [3] is 70.9%. For the same compound, the activity at 100 µM in data set [4] (setting [5]) was found to be 203%. Besides, in data set [4], the “effect of reducing insulin resistance, times better than the control group” value is recorded as “about 12 times”.

The compound `CN(C)c1nc(N)nc(NCCN2CCOCC2)n1` [Example 3, N2,N2-dimethyl-N4-(2-morpholinoethyl)-1,3,5-triazine-2,4,6-triamine] came in with a melting point of 138.2 to 141.6 °C. Further, the activity at 500 µM in data set [1] (500 uM) was found to be 67.6%. For the same compound, the activity at 250 µM in data set [2] (250 uM) is 113%. Also, in data set [3] (250 uM), the activity at 250 µM came to 98%. Also, in data set [4] (Mus musculus, 250 uM, differentiated C2C12 muscle cells, with 1 μM insulin 24 h, higher is better, read-out: glucose absorption, % control), the activity at 250 µM was determined as 132%.

For the compound `COc1ccc(Nc2nc(N)nc(N(C)C)n2)cc1` [Example 15, N2,N2-dimethyl-N4-(4-methoxyphenyl)-1,3,5-triazine-2,4,6-triamine], the melting point fell in the range of 173 to 176 °C. Moreover, the activity at 100 µM in data set [1] is 114%. Also, the activity at 100 µM in data set [2] was 57.1%. The activity at 100 µM in data set [3] was found to be 53.6%. The activity at 100 µM in data set [4] (setting [5]) was 91.1%.

The compound `CN(C)c1nc(N)nc(Nc2ccc(F)cc2)n1` [Example 31, N2-(4-fluorophenyl)-N4,N4-dimethyl-1,3,5-triazine-2,4,6-triamine] came in with a melting point of 182 to 199 °C. Besides, in data set [1], the activity at 100 µM was determined as 80.7%. The activity at 100 µM in data set [2] is 67.2%. In addition, the activity at 100 µM in data set [3] is 69.8%. The activity at 100 µM in data set [4] (setting [5]) was determined as 131%.
